Assay [1] concerns B-cell non-Hodgkin lymphoma cells KARPAS-422. The assay is described as follows: Cell proliferation analysis, KARPAS-422, 13 days, CellTiter-Glo. It is filed as cell-based, Human. Conditions: Homo sapiens, KARPAS-422, 312 h, Karpas-422, 13 days. The procedure:
Example 55: Cell Proliferation Analysis
Human B-cell non-Hodgkin lymphoma cells KARPAS-422 S were cultured in culture flasks using standard cell culture conditions. The culture medium contains 15% fetal bovine serum (FBS, Invitrogen, product number 10099-141), 1% penicillin/streptomycin solution (P/S) RPMI-1640 (Invitrogen, product number 11875), and the culture flask is placed and cultured in a sterile incubator at 37° C., 95% relative humidity, and 5% CO2. In order to detect the effect of PRC2 inhibitors on cell proliferation, cells in the exponential growth phase were seeded into 96-well plates (Corning, product number 3904) at a density of 1×10^4 cells/well, and 100 μL of medium was added to each well. Subsequently, the compounds disclosed herein at different concentrations were added to the wells seeded with cells (9 concentration gradients were set for each compound, and the highest detection concentration was 10 μM, 3-fold gradient dilution), and 2 repeats in parallel were set for each treatment concentration. The final concentration of DMSO is 0.5%. Then the number of surviving cells was counted with Vi-CELL (Beckman Coulter) every 3-4 days. The cells counted each time were seeded into a new 96-well plate at the same density (1×10^4 cells/well). The wells were supplemented with fresh medium to 100 μL, and different concentrations of the compound were added at the same time. The cells were cultured until the 13th day, on which 100 μL of CellTiter-Glo (CellTiter-GloCellTiter-GloCellTiter-GloCTG) (Promega, Product No. G7573) was added to each well. The plate was placed for 10-20 minutes in the dark at room temperature, and Molecular Devices and SpectraMax i3X were used to read the luminous signal. The data were fitted to a dose-response curve using GraphPad prisim5 and the IC50 values of the tested compounds were obtained.

Assay [2] concerns the target T1, EED protein (full-length, His6 tag) binding to H3K27me3 polypeptide (Homo sapiens, UniProt O75530).
T1 construct: The full-length EED protein (441 amino acids) with His6 tag
Kind of assay: AlphaScreen evaluation of blocking the binding of EED to H3K27Me3. The settings on record: EED / biotinylated H3K27me3 peptide competition. As for the experimental part:
Example 53: Evaluation of the Effect of the Compound in Blocking the Binding of EED to H3K27Me3 by AlphaScreen (a-Screening) Method
First, compound solutions with different concentration gradients are prepared. Compound powder is dissolved in DMSO to form mother liquor. 1.5 μL of the compound mother liquor is taken to 198.5 μL reaction buffer (25 mM HEPES (pH 8.0), 50 mM NaCl, 0.015% Tween 20, 0.5% BSA) and the solution is mix uniformly, and then 3-fold gradient dilution is performed with the above buffer containing 0.75% DMSO. 9 different test concentrations are set for the same compound. 5 μL of compounds with different concentration gradients was taken to ProxiPlate-384 Plus, White detection plate (PerkinElmer, 6008280), and 2 parallel replicates are set for each concentration gradient.
Next, a binding blocking reaction is performed. The full-length EED protein (441 amino acids) with His6 tag is diluted to 60 nM with the above buffer, and the biotinylated polypeptide fragment H3K27me3 (amino acids 19-33) (Biotinylated-H3K27me3) is diluted to 75 nM with the same buffer. 5 μL of 75 nM peptide fragments and 5 μL of 60 nM protein are transferred to the testing wells containing the compound respectively. The testing plate is sealed with a film, and is incubated for 30 minutes at room temperature.
Finally, AlphaScreen method is used for detection. Before use, nickel chelate acceptor beads and streptavidin donor beads (Perkin Elmer, product number 6760619M) are mixed into the above reaction buffer at a ratio of 1:1, and then 5 μL of the above pre-mixed testing solution is added to each testing well. The final concentration of the donor beads and acceptor beads is 5 μg/mL. The testing plate is covered with tin foil and placed at room temperature in the dark for 1 hour. Signals are read using an AlphaScreen detector on a Spectra max i3. The AlphaScreen signal is normalized according to the readings obtained from the positive control (maximum signal control) and negative control (minimum signal control) to give the inhibition rate of different concentrations of the compound. After that, non-linear regression analysis was performed with GraphPad Prism 5, and dose-response equation Y=Bottom+(Top−Bottom)/(1+10^((Log IC50−X)*HillSlope)) is used to make an inhibition curve, obtaining the IC50 value of each compound. […]

The test system of assay [3] is trimethylation level of histone H3K27 in G401 cells. Kind of assay: ELISA (H3K27 trimethylation) analysis in G401 cells. The format is cell-based. The settings on record: Homo sapiens, G-401, 72 h, H3K27me3 normalized by H3. As for the experimental part:
Example 54: ELISA (H3K27 Trimethylation) Analysis
Representative compounds of the present disclosure are diluted in DMSO with 3-fold gradient, and 10 concentration gradients are tested per compound. The maximum testing concentration is 10 μM. The compound is diluted 200-fold into G401 cells cultured in 96-well plates (the final concentration of DMSO is 0.5%). After the cells are cultured for 72 hours, the trimethylation level of histone H3K27 is detected by ELISA method.
Histone extraction: compound-treated cells in a 96-well plate are washed 3 times with 1×PBS (10×PBS buffer (80 g NaCl (Sigma, Product No. S3014), 2 g KCl (Sigma, Product No. 60128), 14.4 g Na2HAPO4 (Sigma, Product No. S5136) and 2.4 g KH2PO4 (Sigma, Product No. P9791) are added to 1 L water, pH to 7.4), and 100 μL of 0.4N HCl is added to each well. The 96-well plate is placed at 4° C. and gently shaken for 2 hours to lyse the cells. The cell lysate is then neutralized with 80 μL of neutralization buffer (0.5M disodium hydrogen phosphate, pH 12.5, 2.5 mM DTT; 1% cocktail (Sigma, Product No. P8340) (mixing the cell lysate and neutralization buffer thoroughly).
ELISA detection method: the cell lysates are transferred in parallel to two 384-well assay plates (PerkinElmer, OptiPlate-384HB, Product No. 6007290). One plate is used to detect the trimethylation level of H3K27, and the other plate is used to measure the level of H3. PBS is adjusted to a final volume of 50 μL/well. The wells are coated overnight at 4° C. On the next day, the solution in the wells was discarded. TBST buffer (1 xTBS (10×TBS: 24.2 g Tris (Sigma, Product No. T6066) and 80 g NaCl (Sigma, Product No. S3014) are added to 1 L water, and pH is adjusted to 7.6 with HCl) and 0.1% Tween-20) is used to wash it 5 times, and the water is dried on absorbent papers. 70 μL of blocking buffer (TBST, 5% BSA) is added to the coated reaction wells, and the wells are incubated for 1 hour at room temperature. The blocking buffer was discarded, and the primary antibody is added (30 μL/well). The required primary antibodies are diluted with blocking buffer, and the dilution ratios were as follows: anti-H3K27me3 antibody (Cell Signaling Technology, Product No. 9733), 1:2000 dilution; anti-H3 antibody (Cell Signaling Technology, Product No. 4499), 1:10000 dilution. After adding the primary antibody, the wells are incubated at room temperature for 1 hour. After washing with TBST for 5 times, the water are dried. The secondary antibody (30 μL/well) is added to each reaction well, and the wells are incubated at room temperature for 1 hour. Secondary antibody (anti-rabbit antibody (Jackson ImmunoResearch, Product No. 111-035-003)) is used after dilution 2000-fold in blocking buffer. After 1 hour, it is washed with TBST and dried. 30 μL of ECL substrate (Pierce, Product No. 34080) is added to each well and centrifuged for 30 seconds at 2000 rpm. Signal of each sample is detected using Molecular Devices, SpectraMax. Data processing: H3K27 methylation readings are first normalized by H3 signal. 0.500 DM8)-treated sample is used as a control, and the inhibition percentage of the compound is calculated. The data is fitted to a dose-response curve using the GraphPad prisim5 program, obtaining the IC50 values of the test compounds.
Background: In an ELISA, binding on a coated surface is turned into a signal by an enzyme label.

SMILES strings stand for the structures.

This is an account of results in patent publication US20240182492A1, “AZAHETEROARYL COMPOUND, PREPARATION METHOD THEREFOR, AND APPLICATION THEREOF” (SHANGHAI BLUERAY BIOPHARMA CO., LTD., priority 2021, published 2024).

In general, IC50 refers to the concentration that gives 50% inhibition. A high value points to a need for much substance.

T1 sequence (O75530 whole entry): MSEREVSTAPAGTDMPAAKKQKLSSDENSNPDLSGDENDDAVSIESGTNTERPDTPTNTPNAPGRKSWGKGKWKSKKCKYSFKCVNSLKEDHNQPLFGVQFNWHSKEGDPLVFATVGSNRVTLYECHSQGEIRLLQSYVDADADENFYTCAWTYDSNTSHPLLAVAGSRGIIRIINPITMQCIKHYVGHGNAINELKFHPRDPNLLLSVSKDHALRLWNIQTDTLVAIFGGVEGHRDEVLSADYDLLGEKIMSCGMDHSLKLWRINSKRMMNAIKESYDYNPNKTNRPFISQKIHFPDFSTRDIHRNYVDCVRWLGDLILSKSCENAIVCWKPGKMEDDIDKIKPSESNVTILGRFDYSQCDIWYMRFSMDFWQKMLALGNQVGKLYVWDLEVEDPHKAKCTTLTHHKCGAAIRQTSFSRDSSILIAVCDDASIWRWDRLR

Consider `OC(CF)(CF)c1ccc(-c2cnc(NCc3c(F)ccc4c3CCO4)n3cnnc23)c2ncnn12` [1,3-difluoro-2-[8-(5-{[(5-fluoro-2,3-dihydro-1-benzofuran-4-yl)methyl]amino]-[1,2,4]triazolo[4,3-c]pyrimidin-8-yl)-[1,2,4]triazol[1,5-a]pyridin-5-yl]propan-2-ol], for which the half-inhibitory concentration (IC50) amounted to 0.0041 µM in assay [1], 0.0069 µM in assay [2] and 0.0011 µM in assay [3].

On to `CC(C)(O)Cc1ccc(-c2cnc(NCc3c(F)ccc4c3CCO4)n3cnnc23)c2ncnn12` [1-(8-(5-(((5-fluoro-2,3-dihydrobenzofuran-4-yl)methyl)amino)-[1,2,4]triazolo[4,3-c]pyrimidin-8-yl)-[1,2,4]triazolo[1,5-a]pyridin-5-yl)-2-methylpropan-2-ol], for which the concentration for half-maximal inhibition (IC50) in assay [1] turned out to be 0.0102 µM; in assay [2], 0.0113 µM; in assay [3], 0.0032 µM.

In the case of `CCC(O)c1ccc(-c2cnc(NCc3c(F)ccc4c3CCO4)n3cnnc23)c2ncnn12` (stereo not drawn) [1-(8-(5-(((5-fluoro-2,3-dihydrobenzofuran-4-yl)methyl)amino)-[1,2,4]triazolo[4,3-c]pyrimidin-8-yl)-[1,2,4]triazolo[1,5-a]pyridin-5-yl)propan-1-ol], the half-inhibitory concentration (IC50) in assay [1] worked out at 0.0032 µM; in assay [2] it was 0.0065 µM; in assay [3] it was 0.0026 µM.

Take `OC1(c2ccc(-c3cnc(NCc4c(F)ccc5c4CCO5)n4cnnc34)c3ncnn23)CC1` [1-[8-(5-{[(5-fluoro-2,3-dihydro-1-benzofuran-4-yl)methyl]amino]-[1,2,4]triazolo[4,3-c]pyrimidin-8-yl)-[1,2,4]triazol[1,5-a]pyridin-5-yl]cyclopropan-1-ol]: the figures for the IC50 in assay [1], in assay [2] and in assay [3] were 0.0033 µM, 0.0047 µM and 0.0009 µM, respectively.

With `OC1(c2ccc(-c3cnc(NCc4c(F)ccc5c4CCO5)n4cnnc34)c3ncnn23)CCC1` [1-[8-(5-{[(5-fluoro-2,3-dihydro-1-benzofuran-4-yl)methyl]amino]-[1,2,4]triazolo[4,3-c]pyrimidin-8-yl)-[1,2,4]triazolo[1,5-a]pyridin-5-yl]cyclobutan-1-ol], the IC50 in assay [1] came out at 0.0016 µM; in assay [2], 0.0055 µM; in assay [3] it was 0.0003 µM.

In the case of `CC(O)(CF)c1ccc(-c2cnc(NCc3c(F)ccc4c3CCO4)n3cnnc23)c2ncnn12` (stereo not drawn) [1-fluoro-2-[8-(5-{[(5-fluoro-2,3-dihydro-1-benzofuran-4-yl)methyl]amino}-[1,2,4]triazolo[4,3-c]pyrimidin-8-yl)-[1,2,4]triazolo[1,5-a]pyridin-5-yl]propan-2-ol], the IC50 was 0.0022 µM in assay [1], 0.0043 µM in assay [2] and 0.0011 µM in assay [3].

In the case of `CC(C)(O)c1c(F)cc(-c2cnc(NCc3c(F)ccc4c3CCO4)n3cnnc23)c2ncnn12` [2-(6-fluoro-8-(5-(((5-fluoro-2,3-dihydrobenzofuran-4-yl)methyl)amino)-[1,2,4]triazolo[4,3-c]pyrimidin-8-yl)-[1,2,4]triazolo[1,5-a]pyridin-5-yl)propan-2-ol], the IC50 in assay [1] worked out at 0.0146 µM; in assay [2] it was 0.0057 µM; in assay [3], 0.0059 µM.

`Cc1nc2c(-c3cnc(NCc4c(F)ccc5c4CCO5)n4cnnc34)cnc(C(C)(C)O)n2n1` [2-(8-(5-(((5-fluoro-2,3-dihydrobenzofuran-4-yl)methyl)amino)-[1,2,4]triazolo[4,3-c]pyrimidin-8-yl)-2-methyl-[1,2,4]triazolo[1,5-c]pyrimidin-5-yl)propan-2-ol]: the results for the IC50 in assay [1], in assay [2] and in assay [3] were 0.0065 µM, 0.0084 µM and 0.0006 µM, respectively.

Turning to `Cc1cc(-c2cnc(NCc3c(F)ccc4c3CCO4)n3cnnc23)c2ncnn2c1C(C)(C)O` [2-(8-(5-(((5-fluoro-2,3-dihydrobenzofuran-4-yl)methyl)amino)-[1,2,4]triazolo[4,3-c]pyrimidin-8-yl)-6-methyl-[1,2,4]triazolo[1,5-a]pyridin-5-yl)propan-2-ol], the 50% inhibitory concentration (IC50) in assay [1] amounted to 0.0087 µM; in assay [2], 0.0075 µM; in assay [3], 0.0024 µM.

With `CCC(C)(O)c1ccc(-c2cnc(NCc3c(F)ccc4c3CCO4)n3cnnc23)c2ncnn12` (stereo not drawn) [2-(8-(5-(((5-fluoro-2,3-dihydrobenzofuran-4-yl)methyl)amino)-[1,2,4]triazolo[4,3-c]pyrimidin-8-yl)-[1,2,4]triazolo[1,5-a]pyridin-5-yl)butan-2-ol], the 50% inhibitory concentration (IC50) was found to be 0.0052 µM in assay [1], 0.0075 µM in assay [2] and 0.0021 µM in assay [3].

For `CC(C)(O)c1ncc(-c2cnc(NCc3c(F)ccc4c3CCO4)n3cnnc23)c2ncnn12` [2-(8-(5-(((5-fluoro-2,3-dihydrobenzofuran-4-yl)methyl)amino)-[1,2,4]triazolo[4,3-c]pyrimidin-8-yl)-[1,2,4]triazolo[1,5-c]pyrimidin-5-yl)propan-2-ol], the half-maximal inhibitory concentration (IC50) in assay [1] was 0.0066 µM; in assay [2], 0.0062 µM; in assay [3] it was 0.0028 µM.
